Results published in US7024311B1, “COMPUTER-AIDED METHOD FOR THE PROVISION, IDENTIFICATION AND DESCRIPTION OF MOLECULES CAPABLE OF EXHIBITING A DESIRED BEHAVIOR, MORE PARTICULARLY IN THE PHARMACEUTICAL SECTOR, AND MOLECULES OBTAINED BY SAID METHOD” (Synt:EM S.A., priority 1997, dated 2006).
Where “and” joins values, the source holds several entries; their conditions need not be identical. Equal entries are not always repeated. Marks after values point to notes of the source that are not given here.

How the values were obtained:
[1] = system: CBA mouse recipients of C57B1/6 donor hearts; assay: heart-allograft survival in mice (abdominal heterotopic heart transplantation); type: in vivo; settings: for MSTSD / mean graft survival time: CBA recipients of C57B1/6 donor hearts, peptide intraperitoneal daily from day of transplantation until day nine
Method: Abdominal heterotopic heart transplantation was carried out as described previously in J. Thorac. Cardiovasc. Surg., vol. 7, page 225 (1969).
CBA mouse recipients of C57B1/6 donor hearts were treated daily with different doses of peptide following organ transplantation. Peptides were dissolved in DMSO and diluted in PBS (final DMSO concentration 10%) before intraperitoneal administration. Animals were treated from the day of transplantation until day nine. Graft survival was monitored daily by direct palpation, and rejection was defined as termination of palpable cardiac contractility. The statistical significance of prolongation of heart allograft survival was calculated using the Mann-Whitney test.

[2] = system: CBA mouse recipients of C57B1/6 donor hearts; settings: cited from earlier work

Substance | MSTSD ([1]; dose not printed in table) | also measured
ENLRIALR [shortened peptide derived from 2702.75-84] | 8.5 0.7 (12) | 
NLRIALRYYW [peptide derived from peptide 2702.75-84] |  | mean graft survival time ([1]; dose not printed in table): 11.6 days
REDLRTLLRY | 7.7 1.2 (11) | 
RENLRIALRY [peptide derived from HLA-B2702, amino acids 75 to 84, reference compound] | 11.4 2.6 (1)* and 11.4 4.1 (1) | allograft survival, reference peptide ([1]; 80 mg/kg/day): prolonged allograft survival; effect at lower doses, reference peptide ([1]; doses lower than 80 mg/kg/day): no effect was observed; long-term graft survival ([1]; reference peptide administration): no long-term graft survival was induced; heart-allograft survival ([2]; 80 mg/kg/day for 10 days following transplantation of B6 donor hearts into CBA recipients, n=8, p<0.01 vs untreated): 11.4 days; heart-allograft survival in mice ([2]; Transplantation, vol. 59, page 455 (1995)): prolongs heart-allograft survival in mice; effect on graft survival at lower doses ([2]; doses lower than 80 mg/kg/day): No effect on graft survival was observed
RESLRLLRGY | 7.5 0.7 (10) | 
RMNLQTLRGY | 7.5 0.7 (15) | 
RVDKRTLLGY | 7.8 1.0 (8) | 
RVDLRTLLRY | 7.0 0.5 (7) | 
RVNLRIALRY [peptide derived from peptide 2702.75-84] | 11.5 0.5 (3) | mean graft survival time ([1]; dose not given): 13.1 days
RVNLRTALRY |  | mean graft survival time ([1]; dose not printed in table): 8.5 days
RVNLRTLRRY | 8.0 0.5 (14) | 
RVSLRNLLGY | 8.0 0.5 (9) | 
YRLAIRLNER | 12.1 2.8 (2) | MSTSD ([1]; dose not printed in table, listed as yrlairlner): 13.2 2.7 (2)
YRLAIRLNVR |  | mean graft survival time ([1]; dose not printed in table): 12.5 days; mean graft survival time ([1]; dose not printed in table, listed as yrlairlnvr): 12.2 days
renlpialry | 9.5 2.4 (13) | 
